Laboratory results taken from US10947243B2, “Heteroaryl SYK inhibitors” (Boehringer Ingelheim International GmbH, priority 2014, dated 2021).
Where two headings read alike, the source gives them in different places.

What was measured:
[1] = molecular target: Recombinant human Syk (amino acids 342-635) (Homo sapiens (Human), UniProt P43405); test: Syk Kinase Test (Kinase Glo luminescence); format: biochemical
Experimental: (§1) The output file of the reader is a csv file that contains the well number and measured relative light units (RLU). For data evaluation and calculation, the measurement of the negative control was set as 100% ctrl and the measurement of the positive control was set as 0% ctrl. Based on this values the % value for the measurement of each substance concentration was calculated using an Assay Explorer software (Accelrys). Normally, the % ctrl values calculated are between 0% and 100% values but may also occur outside these limits in individual cases based on variability or compound characteristics. The IC50 values were calculated from the % ctrl values using Assay Explorer software. Calculation: [y=(a−d)/(1+(x/c)^b)+d] a=low value, d=high value; x=conc M; c=IC50 M; b=hill; y=% ctrl.

[2] = molecular target: Recombinant human Aurora B (amino acids 1-344) (Homo sapiens (Human), UniProt Q96GD4); test: Aurora B Kinase Test (ADP Glo luminescence); format: biochemical
Recombinant human Aurora B (amino acids 1-344), sequence (Q96GD4 whole entry, the tested form may be a part): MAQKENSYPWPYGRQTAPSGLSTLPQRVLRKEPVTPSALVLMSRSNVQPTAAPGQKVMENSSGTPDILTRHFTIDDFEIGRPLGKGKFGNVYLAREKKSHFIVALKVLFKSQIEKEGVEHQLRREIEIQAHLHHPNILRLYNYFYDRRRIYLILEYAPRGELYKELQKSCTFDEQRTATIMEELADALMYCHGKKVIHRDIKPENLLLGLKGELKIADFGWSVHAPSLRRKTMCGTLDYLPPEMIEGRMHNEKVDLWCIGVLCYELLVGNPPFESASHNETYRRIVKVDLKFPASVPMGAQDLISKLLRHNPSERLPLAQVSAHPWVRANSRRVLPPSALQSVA
Experimental: The activity of the Aurora B kinase protein was determined using the ADP Glo® Luminescence Kinase test (Promega; V9103X).
Serial Dilution is done in 1:10 steps in 100% DMSO.
Then 20 μl Kinase detection mix (Detection Buffer #V913B Promega; Kinase Detection Substrate #V914B Promega) were added and incubated for 40 minutes at room temperature.
as §1, with “measured RLU.” for “measured relative light units (RLU).”, “as 0%” for “as 100%”, “as 100%” for “as 0%”, “Calculation: [y=(a−d)/(1+(x/c)^b)+d],” for “Calculation: [y=(a−d)/(1+(x/c)^b)+d]”

FLT3 = FLT3 (Homo sapiens (Human), UniProt P36888); test: FLT3 Kinase Test (Z'-LYTE); format: biochemical
FLT3, sequence (P36888 564-958): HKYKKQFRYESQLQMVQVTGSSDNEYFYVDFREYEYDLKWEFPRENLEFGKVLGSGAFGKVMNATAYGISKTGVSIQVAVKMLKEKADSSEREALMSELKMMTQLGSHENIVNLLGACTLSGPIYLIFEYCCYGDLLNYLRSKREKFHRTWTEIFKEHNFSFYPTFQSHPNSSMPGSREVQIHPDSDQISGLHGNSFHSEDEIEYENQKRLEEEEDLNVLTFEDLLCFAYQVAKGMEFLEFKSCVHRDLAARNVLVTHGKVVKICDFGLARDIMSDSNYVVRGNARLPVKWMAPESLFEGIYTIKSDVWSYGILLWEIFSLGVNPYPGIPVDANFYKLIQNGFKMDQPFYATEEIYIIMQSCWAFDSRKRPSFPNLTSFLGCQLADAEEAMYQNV
Experimental: The activity of FLT3 is measured using the Z′-LYTE™ assay technology from Invitrogen (#PV3191)
The reaction is started by addition of 2.5 μl of the 4×ATP solution.
Positive controls are reaction mixtures containing no test compound; negative controls (blanks) are reaction mixtures containing no kinase. As a further control, the phosphopeptide solution is added to wells without kinase (=100% phosphorylation control).
The reaction is performed for 1 h at room temperature before 5 μl of the development solution is added. After a further incubation for 1 h at room temperature 5 μl of the stop reagent is added.
The output text file is evaluated in an “MS-Excel-VB-Makro” and “GraphPadPrism” (Version 5) (GraphPad Software Inc.) is used to calculate the results. Data for the inhibition of FLT3 are reported in M. data for the inhibition of the protease are reported in % CTL.

[3] = Human Liver Microsomal Stability Test; format: in vitro ADME; details: human liver microsomes
Experimental: The metabolic degradation for a specific SYK-inhibitor is performed at 37° C. with pooled human liver microsomes (human liver microsomes are commercially available as “BD UltraPool™” by Corning Life Sciences, Fogostraat 12, 1060 LJ Amsterdam, The Netherlands). The final incubation volume of 100 μl per time point contains TRIS buffer pH 7.6 at RT (0.1 M), magnesium chloride (5 mM), microsomal protein (1 mg/ml) and the test compound at a final concentration of 1 μM.
Following a short preincubation period at 37° C., the reaction is initiated by addition of beta-nicotinamide adenine dinucleotide phosphate in its reduced form (NADPH, 1 mM) and terminated by transfering an aliquot into solvent after different time points. Additionally, the NADPH-independent degradation is monitored in incubations without NADPH, terminated at the last time point.
The quenched (terminated) incubations are then pelleted by centrifugation (10000 g, 5 min).
An aliquot of the supernatant is assayed by LC-MS/MS for the remaining amount of parent compound. The half-life (t½ INVITRO) is determined by the slope of the semilogarithmic plot of the concentration-time profile.
The intrinsic clearance (CL_[…]) is calculated by considering the amount of protein in the incubation: CL_[…] [μl/min/mg protein]=(Ln 2/(t½INVITRO [min]*protein content [mg/ml]))*1000
The protein content [mg/ml] was determined with the “Bicinchoninic Acid Kit” of Sigma Aldrich (commercially available).
The upscaled intrinsic Clearance (CL_UP_INT) is calcuated by considering the liver weight [g liver/kg body weight] and the microsomal recovery [mg protein/g liver]: CL_UP_INT [ml/min/kg]=0.001*CL_[…]*liver weight*microsomal recovery • with microsomal recovery=45 mg protein/g liver • with liver weight=25.7 g liver/kg body weight
The percent hepatic blood flow (% Qh) is finally calculated by considering the human liver blood flow Q [ml/min/kg]: % Qh [%]=((Q*CL_UP_INT)/(Q+CL_UP_INT)/Q)*100 • with liver blood flow (Q)=20.7 ml/min/kg.

[4] = compounds of the invention (own Example numbers)
[5] = comparison compounds, Example numbers of WO 2013/014060, read-out: IC50 in μM (SYK-Inhibition)
[6] = comparison compounds, Example numbers of WO 2013/014060, read-out: IC50 in μM (AURB-Inhibition)
[7] = comparison compounds, Example numbers of WO 2013/014060, read-out: IC50 in μM (FLT3-Inhibition)
[8] = comparison compounds, Example numbers of WO 2013/014060
[9] = comparison compounds, Example numbers of WO 2011/092128
[10] = read-out: AURB-inhibition IC50-value
[11] = read-out: FLT3-inhibition IC50-value

COc1ccc(-c2cc3nn(C)cc3c(O[C@H](C)[C@H]3CNC(=O)C3)n2)cc1OC [Example 1, (4R)-4-[(1R)-1-[6-(3,4-Dimethoxyphenyl)-2-methyl-pyrazolo[4,3-c]pyridin-4-yl]oxyethyl]pyrrolidin-2-one]
IC50 ([1]; comparison compounds, Example numbers of WO 2011/092128, read-out: IC50 in μM (SYK-Inhibition)): 0.009 µM | IC50 ([2]; comparison compounds, Example numbers of WO 2011/092128, read-out: IC50 in μM (AURB-Inhibition)): 5.09 µM | IC50 (FLT3; comparison compounds, Example numbers of WO 2011/092128, read-out: IC50 in μM (FLT3-Inhibition)): 1.53 µM | microsomal stability Cl [% Qh] [3, 4]: <23 % Qh

C[C@@H](Oc1nc(-c2cnn(C(C)(C)C)c2)cc2nn(C)cc12)[C@H]1CNC(=O)C1 [Example 2, (4R)-4-[(1R)-1-[6-(1-tert-Butylpyrazol-4-yl)-2-methyl-pyrazolo[4,3-c]pyridin-4-yl]oxyethyl]pyrrolidin-2-one]
IC50 [1, 5]: 0.007 µM | IC50 [2, 6]: 16.9 µM | IC50 (FLT3; [7]): 7.39 µM | microsomal stability Cl [% Qh] [3, 8]: 81 % Qh | microsomal stability Cl [% Qh] [3, 4]: <23 % Qh

COc1cc(-c2cc3nn(C)cc3c(O[C@H](C)[C@H]3CNC(=O)C3)n2)ccc1O [Example 8, (4R)-4-[(1R)-1-[6-(4-Hydroxy-3-methoxy-phenyl)-2-methyl-pyrazolo[4,3-c]pyridin-4-yl]oxyethyl]pyrrolidin-2-one]
IC50 [2, 6]: 0.643 µM | IC50 (FLT3; [7]): 0.369 µM | microsomal stability Cl [% Qh] [3, 9]: 77 % Qh | microsomal stability Cl [% Qh] [3, 8]: 58 % Qh | microsomal stability Cl [% Qh] [3, 4]: <23 % Qh

C[C@@H](Oc1cc(-c2ccn(C)n2)cc2nn(C)cc12)[C@H]1CNC(=O)C1 [Example 14, (4R)-4-[(1R)-1-[2-methyl-6-(1-methylpyrazol-3-yl)indazol-4-yl]oxyethyl]-pyrrolidin-2-one]
IC50 [2, 10]: > 50 µM

C[C@@H](Oc1cc(-c2ccc(F)cn2)cc2nn(C)cc12)[C@H]1CNC(=O)C1 [Example 41, (4R)-4-[(1R)-1-[6-(5-fluoro-2-pyridyl)-2-methyl-indazol-4-yl]oxyethyl]pyrrolidin-2-one]
IC50 [1, 5]: 0.001 µM | IC50 [2, 6]: 0.308 µM | IC50 (FLT3; [7]): 0.505 µM | microsomal stability Cl [% Qh] [3, 8]: 37 % Qh | microsomal stability Cl [% Qh] ([3]; percent hepatic blood flow): <23 % Qh

C[C@@H](Oc1cc(-c2ccc(C3CCN(C)CC3)cc2)cc2nn(C)cc12)[C@H]1CNC(=O)C1 [Example 42, (4R)-4-[(1R)-1-[2-methyl-6-[4-(1-methyl-4-piperidyl)-phenyl]indazol-4-yl]oxyethyl]-pyrrolidin-2-one]
IC50 [1, 5]: 0.002 µM | IC50 [2, 6]: 0.63 µM | IC50 (FLT3; [7]): 0.618 µM | microsomal stability Cl [% Qh] [3, 8]: <23 % Qh | microsomal stability Cl [% Qh] ([3]; percent hepatic blood flow): <23 % Qh

C[C@@H](Oc1nc(-c2ccc3cc(C(=O)N(C)C)n(C)c3c2)cc2nn(C)cc12)[C@H]1CNC(=O)C1 [Example 56, N,N,1-trimethyl-6-[2-methyl-4-[(1R)-1-[(3R)-5-oxopyrrol-idin-3-yl]ethoxy]pyrazolo[4,3-c]pyridin-6-yl]indole-2-carboxamide]
IC50 [2, 10]: > 50 µM

COc1ccc(-c2cc3nn(C)cc3c(O[C@H](C)[C@H]3CNC(=O)C3)n2)cn1 [Example 59, (4R)-4-[(1R)-1-[6-(6-methoxy-3-pyridyl)-2-methyl-pyrazolo-[4,3-c]pyridin-4-yl]oxyethyl]-pyrrolidin-2-one]
microsomal stability Cl [% Qh] ([3]; percent hepatic blood flow): <23 % Qh

C[C@@H](Oc1nc(-c2ccc3c(cnn3C)c2)cc2nn(C)cc12)[C@H]1CNC(=O)C1 [Example 62, (4R)-4-[(1R)-1-[2-methyl-6-(1-methylindazol-5-yl)pyrazolo[4,3-c]pyridin-4-yl]oxyethyl]pyrrolidin-2-one]
microsomal stability Cl [% Qh] [3, 4]: <23 % Qh

C[C@@H](Oc1nc(-c2ccc(N3CCN(C)CC3)cc2)cc2nn(C)cc12)[C@H]1CNC(=O)C1 [Example 67, (4R)-4-[(1R)-1-[2-methyl-6-[4-(4-methylpiperazin-1-yl)phenyl]pyrazolo[4,3-c]pyridin-4-yl]oxyethyl]-pyrrolidin-2-one]
microsomal stability Cl [% Qh] ([3]; percent hepatic blood flow): 34 % Qh

C[C@@H](Oc1nc(-c2ccc3cnn(C)c3c2)cc2nn(C)cc12)[C@H]1CNC(=O)C1 [Example 72, (4R)-4-[(1R)-1-[2-methyl-6-(1-methylindazol-6-yl)pyrazolo[4,3-c]pyridin-4-yl]oxyethyl]pyrrolidin-2-one]
microsomal stability Cl [% Qh] [3, 4]: <23 % Qh

COc1cc(-c2cc3ncccc3c(O[C@H](C)[C@H]3CNC(=O)C3)n2)ccc1OC(F)(F)F [compound 4]
microsomal stability Cl [% Qh] [3, 9]: 33 % Qh

Cc1nc2ccc(-c3cc(O[C@H](C)[C@H]4CNC(=O)C4)c4cccnc4c3)cc2s1 [compound 85]
microsomal stability Cl [% Qh] [3, 8]: 49 % Qh

COc1cc(-c2cc(O[C@H](C)[C@H]3CNC(=O)C3)c3cccnc3c2)ccc1C(F)(F)F [compound 102]
microsomal stability Cl [% Qh] [3, 8]: 54 % Qh

Cc1nc2cc(-c3cc(O[C@H](C)[C@H]4CNC(=O)C4)c4cccnc4c3)ccc2n1C [compound 105]
microsomal stability Cl [% Qh] [3, 8]: 64 % Qh

Cc1nc(C)c2cc(-c3cc(O[C@H](C)[C@H]4CNC(=O)C4)c4cccnc4c3)ccc2n1 [compound 107]
microsomal stability Cl [% Qh] [3, 8]: 38 % Qh

Cc1nc2cc(-c3cc(O[C@H](C)[C@H]4CNC(=O)C4)c4cccnc4c3)ccc2[nH]1 [compound 109]
microsomal stability Cl [% Qh] [3, 8]: 41 % Qh

(4R)-4-[(1R)-1-[2-methyl-6-(3-methyl-1-tetrahydropyran-4-yl-pyrazol-4-yl)pyrazolo-[4,3-c]pyridin-4-yl]oxyethyl]-pyrrolidin-2-one [Example 79]
IC50 ([1]; read-out: SYK-inhibiton IC50-value): 0.0364 µM | IC50 (FLT3; [11]): 26.7 µM

(4R)-4-[(1R)-1-[6-[1-(Difluoromethyl)imidazol-4-yl]-2-methyl-pyrazolo[4,3-c]pyridin-4-yl]oxyethyl]pyrrolidin-2-one [Example 83]
IC50 (FLT3; [11]): 25.6 µM
